Test results: patent US20060178318A1, “Use of aurora kinase inhibitors for reducing the resistance of cancer cells” (priority 2003, published 2006)

Columns and labels:
HeLa cells [1] = settings: stated as known; cited from earlier work
HeLa cells [2] = assay: Taxol sensitivity assay (apoptosis, propidium iodide staining and flow cytometry); type: cell-based, human; settings: Aurora-A-overexpressing vs mock-transfected HeLa cells, different concentrations of Taxol for 72 hr, FIG. 1
Experimental: 2×10^5 cells in complete growth medium were plated in a 35 mm dish before transfection using the Gene Juice transfection reagent (Novagen, United Kingdom) according to the manufacturer's protocol. GFP-expressing cells were flow sorted as before, 48 hr after transfection. Equal numbers of flow sorted mock-transfected or Aurora-A-transfected HeLa cell were plated on 6 well plates in DMEM (Life Technologies, Grand Island, N.Y.) containing 10% FBS. Taxol (Sigma Chemical Co.) at different concentrations was added fresh from a stock prepared in DMSO. The cells were exposed to the drug for 72 hr after which they were analyzed by propidium iodide staining and flow cytometry as described earlier. Cells collected at the indicated time points were centrifuged at 1000 rpm for 5 min at room temperature. 1×10^6 cells were resuspended in 0.5 ml PBS, fixed by adding 4.5 ml of ice-cold 70% ethanol, and incubated overnight in fixative at 4° C. Before analysis, fixed cells were washed in PBS and incubated with propidium iodide staining solution (0.1% Triton.X-100, PBS; 0.02 mg/ml propidium iodide; 0.2 mg/ml RnaseA) for 30 min at room temperature. […] Ten thousand events were analyzed per sample. […] The percentage of apoptotic cells was then measured using propidium iodide staining and flow cytometry to enumerate the sub G1 (<2N DNA content) population.

tubulin = settings: compared with paclitaxel; cited from earlier work

| Compound | sensitivity of HeLa cells to Taxol-induced apoptosis (HeLa cells [1]) | resistance to paclitaxel-induced apoptosis (percentage of apoptotic cells, sub G1 population) (HeLa cells [2]) | tubulin-assembly activity relative to paclitaxel (tubulin) |
| --- | --- | --- | --- |
| CC(=O)O[C@H]1C(=O)[C@@]2(C)[C@H]([C@H](OC(=O)c3ccccc3)[C@]3(O)C[C@H](OC(=O)[C@H](O)[C@@H](NC(=O)c4ccccc4)c4ccccc4)C(C)=C1C3(C)C)[C@]1(OC(C)=O)CO[C@@H]1C[C@@H]2O [paclitaxel] | highly sensitive | striking increase in resistance | – |
| A-nor-paclitaxel | – | – | only three times less than that of paclitaxel |
